pEC50, pIC50: −log10 of the molar value. Read-outs that look alike come from different tables or passages of the source. Each block holds one compound with its values, some of them ahead of it.
Experiments:
[1] = system: HCMV (strain AD169); test: Inhibition of HCMV replication, plaque reduction assay (PRA, Hs-68 cells); assay type: cell-based, Human Cytomegalovirus (HCMV); conditions: read-out: PRA CMV EC50
Method: C) Inhibition of Human Cytomegalovirus (HCMV) Replication
The effect of compounds on the replication of HCMV has been measured by using an ELISA-based assay (ELISA) and a plaque reduction assay (PRA).
Hs-68 cells (ATCC # CRL 1635) were seeded in 12-well plates at 83,000 cells/well in 1 mL of DMEM medium (Gibco Canada Inc.) supplemented with 10% fetal bovine serum (FBS, Gibco Canada Inc.). The plates were incubated for 3 days at 37° to allow the cells to reach 80-90% confluency prior to the assay.
The medium was removed from the cells by aspiration. The cells were then infected with approximately 50 PFU of HCMV (strain AD169, ATCC VR-538) in DMEM medium supplemented with 5% inactivated FBS (assay medium). The virus was allowed to adsorb to cells for 2 h at 37°. Following viral adsorption, the medium was removed from the wells by aspiration. The cells were then incubated with or without 1 mL of appropriate concentrations of test reagent in assay medium. After 4 days of incubation at 37°, the medium was exchanged with fresh medium containing test compound and 4 days later the cells were fixed with 1% aqueous formaldehyde and stained with a 2% crystal violet solution in 20% ethanol in water. Microscopic plaques were counted using a stereomicroscope. Drug effects were calculated as a percent reduction in the number of plaques in the presence of each drug concentration compared to the number observed in the absence of drug. Ganciclovir was used as a positive control in all experiments.
The EC50 values obtained according to this assay for certain thiazolyl derivatives of this invention are listed in the following tables under the heading PRA CMV.

[2] = system: HSV-1 strain F or KOS; test: Inhibition of herpes simplex virus (HSV-1) replication in cell culture (BHK-21 cells, glycoprotein C ELISA); assay type: cell-based; conditions: Human alphaherpesvirus 1, BHK-21, Group 1 Table 1 entries
Method: B) Inhibition of Herpes Simplex Virus (HSV-1) Replication in Cell Culture
BHK-21 cells clone 13 (ATCC CCL10) were incubated for two days in 850 cm^2 roller bottles (2×10^7 cells/bottle) with A-MEM medium (Gibco Canada Inc., Burlington, Ontario, Canada) supplemented with 8% (v/v) fetal bovine serum (FBS, Gibco Canada, Inc.). The cells were trypsinized and then 3,000 cells in 100 μL of fresh medium were transferred into each well of a 96-well microtiter plate. The cells were incubated at […] for a period of 3 days to reach a density of 50,000 cells per well. The cells were washed twice with 100 μL of α-MEM supplemented with 2% heat inactivated FBS and incubated for 1-2 hours in 100 μL of the same medium.
Thereafter, the cells were infected with HSV-1 strain F or KOS (multiplicity of infection =0.05 PFU/cell) in 50 μL of α-MEM supplemented with 2% heat inactivated FBS. Following one hour of virus absorption at 37°, the medium was removed and the cells were washed with α-MEM supplemented with 2% heat inactivated FBS (2×100 μL). The cells were incubated with or without 100 μL of the appropriate concentration of test reagent in α-MEM medium supplemented with 2% heat inactivated FBS. After 24 hours of incubation at 37°, the extent of viral replication was determined by an ELISA assay; for instance, the following assay that detects the late glycoprotein C of HSV-1.
Cells were fixed in the microtiter plate with 100 μL of 0.063% glutaraldehyde in phosphate buffered saline for 30 min at room temperature. The microtiter plate was then washed once with casein blocking solution and blocked with 200 μL of the same solution for one hour at room temperature. Thereafter, 100 μL of mAb C11 recognizing the glycoprotein C of HSV-1 (see E. Trybala et al., Journal of General Virology, 1994, 75, 743) was added to each well for two hours at room temperature. The plate was washed three times with phosphate buffered saline containing 0.05% polyoxyethylene (20) sorbitan monooleate. The cells were incubated with 100 μL of sheep anti-mouse IgG horseradish peroxidase for one hour at room temperature in the dark.
The plate was washed three times with 200 μL of the above-noted phosphate buffer saline preparation, and then once with 0.1 M sodium citrate (pH 4.5). Thereafter, 100 μL of orthophenylenediamine dihydrochloride (OPD, Gibco, Canada Inc.) was added to each well. The plate was agitated on a microplate shaker for 30 min in the dark. Color development was monitored at 450 nm using a microplate spectrophotometer.
SAS was used to calculate % inhibition of viral replication and to generate EC50 values.

[3] = target: T1, HSV-1 helicase-primase (Human herpesvirus 1, UniProt P10189+P10236); test: HSV-1 DNA-dependent ATPase assay (inhibition of HSV-1 helicase-primase); assay type: biochemical; conditions: Group 1 Table 1 entries
T1 construct: made in house; host or cells: Sf21 insect cells triply infected with recombinant baculoviruses (UL5, UL8, UL52)
T1 sequence (P10192 whole entry): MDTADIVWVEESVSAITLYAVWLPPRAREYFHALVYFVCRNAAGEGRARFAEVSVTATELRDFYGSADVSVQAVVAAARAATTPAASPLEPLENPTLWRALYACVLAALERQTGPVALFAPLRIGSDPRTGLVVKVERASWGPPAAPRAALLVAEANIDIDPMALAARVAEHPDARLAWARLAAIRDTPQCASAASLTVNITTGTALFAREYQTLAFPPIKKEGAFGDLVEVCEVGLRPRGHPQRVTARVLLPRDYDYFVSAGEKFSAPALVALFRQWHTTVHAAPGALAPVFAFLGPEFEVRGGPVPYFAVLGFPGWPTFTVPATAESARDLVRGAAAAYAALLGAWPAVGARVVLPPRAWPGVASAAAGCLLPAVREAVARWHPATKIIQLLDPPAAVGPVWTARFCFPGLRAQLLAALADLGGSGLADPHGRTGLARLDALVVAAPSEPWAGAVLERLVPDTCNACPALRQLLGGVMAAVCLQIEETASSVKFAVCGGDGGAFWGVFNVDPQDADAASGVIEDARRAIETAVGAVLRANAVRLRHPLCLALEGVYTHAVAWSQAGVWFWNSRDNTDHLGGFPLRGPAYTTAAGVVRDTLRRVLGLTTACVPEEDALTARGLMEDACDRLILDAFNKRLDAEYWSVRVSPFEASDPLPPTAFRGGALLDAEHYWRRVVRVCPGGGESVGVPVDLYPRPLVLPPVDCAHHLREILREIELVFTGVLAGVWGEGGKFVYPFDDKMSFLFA
T1 sequence (P10236 whole entry): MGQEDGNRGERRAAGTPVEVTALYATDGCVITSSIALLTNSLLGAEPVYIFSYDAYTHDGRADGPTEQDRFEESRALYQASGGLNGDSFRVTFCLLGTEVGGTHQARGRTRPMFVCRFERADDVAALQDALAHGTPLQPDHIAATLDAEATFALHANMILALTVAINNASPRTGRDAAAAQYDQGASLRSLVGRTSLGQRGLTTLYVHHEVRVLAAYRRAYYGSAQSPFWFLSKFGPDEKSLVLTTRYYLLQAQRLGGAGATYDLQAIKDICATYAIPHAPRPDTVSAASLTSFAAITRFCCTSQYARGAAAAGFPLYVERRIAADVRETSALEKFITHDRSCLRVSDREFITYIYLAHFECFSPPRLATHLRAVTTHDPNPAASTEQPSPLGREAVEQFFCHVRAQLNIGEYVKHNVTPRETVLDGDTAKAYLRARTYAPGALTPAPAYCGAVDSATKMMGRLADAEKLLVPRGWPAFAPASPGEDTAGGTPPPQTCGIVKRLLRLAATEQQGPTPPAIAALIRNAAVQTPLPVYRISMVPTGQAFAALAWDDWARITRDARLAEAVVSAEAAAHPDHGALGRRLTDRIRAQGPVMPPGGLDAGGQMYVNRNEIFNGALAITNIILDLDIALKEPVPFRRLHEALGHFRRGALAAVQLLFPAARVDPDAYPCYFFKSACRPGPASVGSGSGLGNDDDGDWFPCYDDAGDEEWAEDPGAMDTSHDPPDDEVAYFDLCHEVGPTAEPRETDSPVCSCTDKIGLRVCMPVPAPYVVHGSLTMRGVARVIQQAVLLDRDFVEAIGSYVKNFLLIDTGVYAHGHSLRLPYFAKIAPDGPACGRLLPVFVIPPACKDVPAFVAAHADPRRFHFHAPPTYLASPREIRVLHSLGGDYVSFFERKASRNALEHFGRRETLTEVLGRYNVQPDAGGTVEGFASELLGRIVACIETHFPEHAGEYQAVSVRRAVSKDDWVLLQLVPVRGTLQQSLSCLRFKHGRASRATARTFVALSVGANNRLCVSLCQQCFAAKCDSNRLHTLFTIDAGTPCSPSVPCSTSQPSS
T1 sequence (P10189 whole entry): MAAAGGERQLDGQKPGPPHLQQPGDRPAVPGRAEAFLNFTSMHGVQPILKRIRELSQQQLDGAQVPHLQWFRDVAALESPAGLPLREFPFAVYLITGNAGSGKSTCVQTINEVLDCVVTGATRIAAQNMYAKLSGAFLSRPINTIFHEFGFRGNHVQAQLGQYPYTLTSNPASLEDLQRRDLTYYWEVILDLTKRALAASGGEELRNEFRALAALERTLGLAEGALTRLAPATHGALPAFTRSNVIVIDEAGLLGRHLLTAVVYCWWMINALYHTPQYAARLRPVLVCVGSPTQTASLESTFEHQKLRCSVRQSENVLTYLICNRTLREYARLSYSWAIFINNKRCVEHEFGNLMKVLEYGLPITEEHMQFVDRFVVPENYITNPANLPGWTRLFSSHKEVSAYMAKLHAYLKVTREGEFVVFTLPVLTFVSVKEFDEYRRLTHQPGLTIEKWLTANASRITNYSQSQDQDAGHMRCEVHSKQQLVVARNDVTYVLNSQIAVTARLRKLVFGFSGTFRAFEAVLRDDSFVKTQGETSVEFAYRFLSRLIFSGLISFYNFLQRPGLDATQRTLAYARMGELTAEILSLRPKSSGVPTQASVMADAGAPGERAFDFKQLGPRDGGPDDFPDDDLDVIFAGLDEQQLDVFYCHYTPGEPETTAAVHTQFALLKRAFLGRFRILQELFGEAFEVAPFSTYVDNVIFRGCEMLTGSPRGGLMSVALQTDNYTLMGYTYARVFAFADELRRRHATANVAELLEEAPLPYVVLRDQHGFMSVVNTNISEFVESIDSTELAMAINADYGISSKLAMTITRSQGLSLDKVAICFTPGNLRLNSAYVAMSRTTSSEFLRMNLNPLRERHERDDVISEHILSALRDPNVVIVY
Description: A) HSV-1 DNA-Dependent ATP Assay (an in Vitro Assay Based on the Inhibition of HSV-1 Helicase-primase).
HSV-1 helicase-primase holoenzyme was produced in triply infected Sf21 cells using recombinant baculoviruses expressing the UL5, UL8 and UL52 helicase-primase subunits, as described by S. Dracheva et al., J. Biol. Chem. 1995, 270, 14148. The crude enzyme was purified by ammonium sulfate precipitation, Source 15Q® chromatography and Sephacryl® S-300 HR gel filtration (both purification systems can be obtained from Pharmacia Biotech Inc., Montreal, Quebec, Canada), see S. Dracheva et al., supra.
The DNA-dependent ATPase assay, described by J. J. Crute et al., Nucleic Acids Res. 1988, 16, 6585, was modified and used to evaluate the capability of the compounds of Group 1-formula 1 to inhibit HSV-1 helicase-primase activity. The reaction mixtures (80 μL each) contained 40 mM 4-(2-hydroxyethyl)-1-piperazineethanesulfonic acid (HEPES, pH 7.5), 10% (v/v) glycerol, 5.5 mM MgCl2, 1 mM DL-dithiothreitol (DTT), 50 μg/mL acetylated bovine serum albumin, 3.3% (v/v) DMSO, 4 mM ATP, 25 μM single-stranded M13 DNA hybridized to double-tailed 68-mer oligonucleotide and 3 μg/mL HSV-1 helicase-primase. After incubation for 20 min at 34°, formation of inorganic phosphate from hydrolysis of ATP was monitored spectrophotometrically at 650 nm using acidic ammonium molybdate/malachite green reagent, P. A. Lanzetta et al., Anal. Biochem. 1979, 100, 95. DNA-dependent ATPase activity was calculated from the net absorbance change in the presence and absence of inhibition.

[4] = Human betaherpesvirus 5, AD169, Hs68, Group 1 Table 4 entries
[5] = Human betaherpesvirus 5, AD169, Hs68, Group 2 Table 1 entries
[6] = Human betaherpesvirus 5, AD169, Hs68, Group 1 Table 3 entries
[7] = Human betaherpesvirus 5, AD169, Hs68, Group 1 Table 2 entries
[8] = Human betaherpesvirus 5, AD169, Hs68, Group 1 Table 1 entries

SMILES: CC(C)(C)OC(=O)Nc1nc(-c2ccc(NC(=O)CCN(Cc3ccccc3)Cc3ccccc3)cc2)cs1 [Example 1]
pEC50 [1, 4]: 5.80

SMILES: CC(C)(C)NC(=O)Nc1nc(-c2ccc(NC(=O)CCN(Cc3ccccc3)Cc3ccccc3)cc2)cs1 [Example 2]
pEC50 [1, 4]: 5.82

SMILES: Nc1nc(-c2ccc(NC(=O)Nc3nccs3)cc2)cs1 [Example 18]
pEC50 [1, 5]: < 4.25

SMILES: Nc1nc(-c2ccc(NC(=O)NCCc3c[nH]c4ccccc34)cc2)cs1 [Example 19]
pEC50 [1, 5]: 4.92

SMILES: Cc1cc(C)nc(SCC(=O)N(CC(=O)Nc2ccc(-c3csc(NC(=O)OC(C)(C)C)n3)cc2)Cc2ccccc2)n1 [Example 21]
pEC50 [1, 6]: 5.92

SMILES: C[C@H](c1ccccc1)N(CC(=O)Nc1ccc(-c2csc(NC(=O)OC(C)(C)C)n2)cc1)C(=O)C1CCCCC1 [Example 22]
pEC50 [1, 6]: 5.89

SMILES: C[C@H](c1ccccc1)N(CC(=O)Nc1ccc(-c2csc(NC(=O)OC(C)(C)C)n2)cc1)C(=O)Cc1ccccn1 [Example 23]
pEC50 [1, 6]: 5.55

SMILES: C[C@H](c1ccccc1)N(CC(=O)Nc1ccc(-c2csc(NC(=O)OC(C)(C)C)n2)cc1)C(=O)c1ccncc1 [Example 24]
pEC50 [1, 6]: 5.43

SMILES: C[C@@H](c1ccccc1)N(CC(=O)Nc1ccc(-c2csc(NC(=O)OC(C)(C)C)n2)cc1)C(=O)Cc1ccccn1 [Example 25]
pEC50 [1, 6]: 5.57

SMILES: CC(=O)Nc1nc(-c2ccc(NC(=O)CN(C(=O)C3CCCCC3)[C@H](C)c3ccccc3)cc2)cs1 [Example 26]
pEC50 [1, 6]: 4.82

SMILES: Nc1nc(-c2ccc(NC(=O)CCN(Cc3ccccc3)Cc3ccccn3)cc2)cs1 [Example 26]
pEC50 [1, 7]: 4.85

SMILES: Nc1nc(-c2ccc(NC(=O)CCN(CCN3CCCC3)Cc3ccccc3)cc2)cs1 [Example 27]
pEC50 [1, 7]: 4.82

SMILES: CN(CCc1ccncc1)C(=O)Nc1ccc(-c2csc(NC(=O)OC(C)(C)C)n2)cc1 [Example 29]
pEC50 [1, 5]: 5.41

SMILES: Nc1nc(-c2ccc(NC(=O)CCN(Cc3ccccc3)Cc3cccnc3)cc2)cs1 [Example 29]
pEC50 [1, 7]: 4.85

SMILES: CCCCN(C)C(=O)Nc1ccc(-c2csc(NC(=O)OC(C)(C)C)n2)cc1 [Example 30]
pEC50 [1, 5]: 5.66

SMILES: Nc1nc(-c2ccc(NC(=O)CCN(Cc3ccccc3)Cc3ccccc3O)cc2)cs1 [Example 30]
pEC50 [1, 7]: 4.89

SMILES: CCCCN(CC)C(=O)Nc1ccc(-c2csc(NC(=O)OC(C)(C)C)n2)cc1 [Example 31]
pEC50 [1, 5]: 5.70

SMILES: CCCCN(CCO)C(=O)Nc1ccc(-c2csc(NC(=O)OC(C)(C)C)n2)cc1 [Example 32]
pEC50 [1, 5]: 5.70

SMILES: CCCCN(CC#N)C(=O)Nc1ccc(-c2csc(NC(=O)OC(C)(C)C)n2)cc1 [Example 33]
pEC50 [1, 5]: 5.62

SMILES: CCCCNc1nc(-c2ccc(NC(=O)N(CCCC)CCCC)cc2)cs1 [Example 34]
pEC50 [1, 5]: 5.00

SMILES: CCCCN(CCCC)C(=O)Nc1ccc(-c2csc(Nc3ccccn3)n2)cc1 [Example 35]
pEC50 [1, 5]: 5.66

SMILES: CCCCN(CCCC)C(=O)Nc1ccc(-c2csc(Nc3cccnc3)n2)cc1 [Example 36]
pEC50 [1, 5]: 5.52

SMILES: Nc1nc(-c2ccc(NC(=O)CN(Cc3ccccc3)C(=O)c3ccsc3)cc2)cs1 [Example 115]
pEC50 [1, 8]: 4.31

SMILES: Nc1nc(-c2ccc(NC(=O)CN(Cc3ccccc3)C(=O)Cc3cccs3)cc2)cs1 [Example 116]
pEC50 [1, 8]: 4.72

SMILES: Nc1nc(-c2ccc(NC(=O)CN(Cc3ccccc3)C(=O)Cc3ccsc3)cc2)cs1 [Example 117]
pEC50 [1, 8]: 4.46

SMILES: Nc1nc(-c2ccc(NC(=O)CN(Cc3ccc(F)cc3)C(=O)Cc3ccccn3)cc2)cs1 [Example 124]
pEC50 [1, 8]: 4.55

SMILES: Nc1nc(-c2ccc(NC(=O)CN(Cc3cccc(F)c3)C(=O)Cc3ccccn3)cc2)cs1 [Example 126]
pEC50 [1, 8]: 4.46

SMILES: Cc1ccccc1CN(CC(=O)Nc1ccc(-c2csc(N)n2)cc1)C(=O)c1cccs1 [Example 128]
pEC50 [1, 8]: 4.55

SMILES: Cc1ccccc1CN(CC(=O)Nc1ccc(-c2csc(N)n2)cc1)C(=O)COc1c(C)cccc1C [Example 129]
pEC50 [1, 8]: 4.92

SMILES: Cc1cc(C)nc(SCC(=O)N(CC(=O)Nc2ccc(-c3csc(N)n3)cc2)Cc2ccccc2C)n1 [Example 130]
pEC50 [1, 8]: 5.06

pEC50 [2]: 7.21
pIC50 [3]: 5.52
SMILES: Nc1nc(-c2ccc(NC(=O)CN(CCc3cscn3)C(=O)c3ccncc3)cc2)cs1 [Example 164]

pEC50 [2]: 5.96
pIC50 [3]: 5.34
SMILES: Cc1nc(CCN(CC(=O)Nc2ccc(-c3csc(N)n3)cc2)C(=O)c2ccncc2)cs1 [Example 165]

pEC50 [2]: 7.52
pIC50 [3]: 6.37
SMILES: Cc1ccn(C)c1C(=O)N(CC(=O)Nc1ccc(-c2csc(N)n2)cc1)Cc1ccccc1 [Example 166]

pEC50 [2]: 7.51
pIC50 [3]: 6.85
SMILES: Cc1cnccc1C(=O)N(CC(=O)Nc1ccc(-c2csc(N)n2)cc1)Cc1ccccc1 [Example 167]

pEC50 [2]: 6.35
pIC50 [3]: 5.54
SMILES: Cc1cc(C(=O)N(CC(=O)Nc2ccc(-c3csc(N)n3)cc2)Cc2ccccc2)cc(C)n1 [Example 168]

pEC50 [2]: 6.82
pIC50 [3]: 5.85
SMILES: Nc1nc(-c2ccc(NC(=O)CN(Cc3ccccc3)C(=O)c3ccncn3)cc2)cs1 [Example 169]

pEC50 [2]: 5.82
pIC50 [3]: 6.15
SMILES: Nc1nc(-c2ccc(NC(=O)CN(Cc3ccccc3)C(=O)c3cscn3)cc2)cs1 [Example 170]

pEC50 [2]: 7.04
pIC50 [3]: 6.34
SMILES: Nc1nc(C(=O)N(CC(=O)Nc2ccc(-c3csc(N)n3)cc2)Cc2ccccc2)cs1 [Example 171]

pEC50 [2]: 6.44
pIC50 [3]: 5.80
SMILES: Cc1nc(C(=O)N(CC(=O)Nc2ccc(-c3csc(N)n3)cc2)Cc2ccccc2)cs1 [Example 172]

pEC50 [2]: 7.30
pIC50 [3]: 6.02
SMILES: Cc1nc(C)c(C(=O)N(CC(=O)Nc2ccc(-c3csc(N)n3)cc2)Cc2ccccc2)s1 [Example 173]

pEC50 [2]: 5.18
pIC50 [3]: 5.04
SMILES: Nc1nc(-c2ccc(NC(=O)CN(CCc3ccncc3)C(=O)c3ccncc3)cc2)cs1 [Example 174]
